Values after ≈ are worked out from the molar mass of the structure shown. Where two headings read alike, the source gives them in different places.
Legend:
[1] = Solubility of the indolinone-based compound in water and excipients; format: physicochemical
Procedure: An increase in the indolinone-based compound's aqueous solubility in hydrotropic solute solutions like nicotinamide and pyridoxine hydrochloride was observed. It is soluble (15-20 mg/mL) in polar excipients like polyethylene glycols of 300 and 400 MW.
(§1) The indolinone-based compound is a planar aromatic compound and is non-ionizable in the pharmaceutically acceptable range.

[2] = Log of ratio of octanol to water solubility (individually determined); format: physicochemical; settings: solubilities individually determined
Excerpt: as §1

[3] = test system: VEGF-induced endothelial cell growth; assay: Inhibition of VEGF-induced endothelial cell growth; format: cell-based; settings: in words
Procedure: Indolinone-based compounds of the invention have been tested for their ability to activate or inhibit protein kinases in biological assays. The methods used to measure indolinone-based compound modulation of protein kinase function are described in U.S. application Ser. No. 08/702,282, filed Aug. 23, 1996, incorporated herein by reference in its entirety, a including any drawings. In particular, indolinone-based compounds of the invention were tested for their ability to inhibit the FLK protein kinase.

Structure (SMILES) | melting point | also measured
Cc1cc(C)c(C=C2C(=O)Nc3ccccc32)[nH]1 [3-[(2,4-dimethylpyrrol-5-yl)methylene]-2-indolinone] |  | influence of pH of the aqueous media on aqueous solubility [1]: did not influence; solubility ([1]; aromatic solvents like benzyl alcohol, organic solvent or mixture, read-out: solubility in aromatic solvents): 10 to 15 mg/mL (≈ 42 to 62.9 mM); aqueous solubility in hydrotropic solute solutions ([1]; hydrotropic solute solutions like nicotinamide and pyridoxine hydrochloride): increase; solubility in water, water miscible non-aqueous solvents, and oils ([1]; in words): low solubility; solubility ([1]; polyethylene glycols of 300 and 400 MW, organic solvent or mixture, read-out: solubility in polar excipients): 15 to 20 mg/mL (≈ 62.9 to 83.9 mM); solubility ([1]; polyglycolized lipids like LABPASOL and GELUCIRE, oil or lipid, read-out: solubility in polyglycolized lipids): 25 to 30 mg/mL (≈ 105 to 126 mM); solubility ([1]; water, read-out: solubility in water): 1e-05 mg/mL (≈ 4.2e-05 mM); log of ratio of octanol to water solubility [2]: 5.6; inhibition of VEGF-induced endothelial cell growth [3]: specific and potent inhibitor
CC(C)(C)c1ccc(Oc2cccc3nc(N)nc(N)c23)cc1 [Procedure B 1, 2,4-Diamino-5-(4-tert-butylphenoxy)quinazoline] | 226 to 228 °C | 
COc1ccc(Oc2cccc3nc(N)nc(N)c23)cc1OC [Procedure B 2, 2,4-Diamino-5-(3,4-dimethoxyphenoxy)quinazoline] | 301 to 302 °C | 
CN(C)c1cccc(Oc2cccc3nc(N)nc(N)c23)c1 [Procedure B 3, 2,4-Diamino-5-(3-dimethylaminophenoxy)quinazoline] | 224 to 225 °C (dec.) | 
Nc1nc(N)c2c(Oc3ccccc3F)cccc2n1 [Procedure B 4, 2,4-Diamino-5-(2-fluorophenoxy)quinazoline] | 301 to 303 °C | 
Nc1nc(N)c2c(Oc3cccc(Br)c3)cccc2n1 [Procedure B 5, 2,4-Diamino-5-(3-bromophenoxy)quinazoline] | 292 to 295 °C | 
COc1ccccc1Oc1cccc2nc(N)nc(N)c12 [Procedure B 6, 2,4-Diamino-5-(2-methoxyphenoxy)quinazoline] | 208 to 209 °C (dec.) | 
Nc1nc(N)c2c(Oc3ccc(OCc4ccccc4)cc3)cccc2n1 [Procedure B 8, 2,4-Diamino-5-(4-benzyloxyphenoxy)quinazoline] | 175 to 177 °C | 
CN(C)CCCOc1cccc2nc(N)nc(N)c12 [Procedure B 9, 2,4-Diamino-5-(3-dimethylaminopropoxy)quinazoline] | 193 to 195 °C | 
COc1ccc(Oc2cccc3ncnc(N)c23)cc1 [Procedure C 1, 4-Amino-5-(4-methoxyphenoxy)quinazoline] | 192 to 195 °C | 
CN(C)c1cccc(Oc2cccc3ncnc(N)c23)c1 [Procedure C 2, 4-Amino-5-(3-dimethylaminophenoxy)quinazoline] | 179 to 181 °C | 
Nc1ncnc2cccc(Oc3cccnc3)c12 [Procedure C 3, 4-Amino-5-(3-pyridinoxy)quinazoline] | 245 to 247 °C | 
Nc1ncnc2cccc(Oc3ccc(OCc4ccccc4)cc3)c12 [Procedure C 4, 4-Amino-5-(4-benzyloxyphenoxy)quinazoline] | 170 to 171 °C | 
Nc1ncnc2cccc(Oc3ccc4c(c3)OCO4)c12 [Procedure C 5, 4-Amino-5-(3,4-methylenedioxyphenoxy) quinazoline] | 201 to 203 °C | 
Nc1nc(N)c2c(-n3cccc3)cccc2n1 [Procedure D 4, 2,4-Diamino-5-(pyrrol-1-yl)quinazoline] | 248 to 250 °C | 
Nc1ncnc2cccc(Oc3ccc(F)cc3)c12 [Similar synthetic processes 1, 4-Amino-5-(4-fluorophenoxy)quinazoline] | 188 to 190 °C | 

— patent US6696482B2, “Formulations for hydrophobic pharmaceutical agents” (Sugen, Inc., priority 1997, dated 2004)
